Reference: paper PMC7004140, “In vitro hepatotoxicity of Petasites hybridus extract (Ze 339) depends on the concentration, the cytochrome activity of the cell system, and the species used” (Phytotherapy Research, 2019)

Tests used:
Format in all cases: in vitro ADME
Details in all cases: petasins 20 μM, 60 min
CYP3A1 (rat) = molecular target: T1, CYP3A1 (rat) (Rattus norvegicus, UniProt P04800); experiment: Metabolism by isolated rat CYP3A1
T1 construct: purchased BD Gentest (Switzerland); host or cells: baculovirus expression system
T1 sequence (P04800 1-504): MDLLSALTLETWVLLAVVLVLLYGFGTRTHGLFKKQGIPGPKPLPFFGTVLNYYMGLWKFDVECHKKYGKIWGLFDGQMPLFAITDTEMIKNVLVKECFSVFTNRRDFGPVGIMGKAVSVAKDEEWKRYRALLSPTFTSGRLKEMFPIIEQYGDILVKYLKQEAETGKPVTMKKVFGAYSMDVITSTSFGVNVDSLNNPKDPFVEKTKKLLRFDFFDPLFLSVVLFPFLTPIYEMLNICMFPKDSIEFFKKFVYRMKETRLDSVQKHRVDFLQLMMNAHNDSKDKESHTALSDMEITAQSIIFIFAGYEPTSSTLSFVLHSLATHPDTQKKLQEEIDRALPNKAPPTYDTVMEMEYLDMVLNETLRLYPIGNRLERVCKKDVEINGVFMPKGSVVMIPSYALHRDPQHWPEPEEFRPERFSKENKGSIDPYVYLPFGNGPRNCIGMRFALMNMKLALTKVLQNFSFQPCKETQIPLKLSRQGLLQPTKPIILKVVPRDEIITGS
Text: (§1) The metabolism of petasin, isopetasin, and neopetasin was investigated using three different S9 fractions originating from three different species (isolated from rat, dog, and human liver homogenates containing cytochrome P450 isoforms) and isolated cytochromes of two different species (human and rat; rat analogues of the respective human cytochromes were used). For the expression of the different cytochromes, a baculovirus expression system was used according to supplier's manual. The S9 fractions or respectively single P450 cytochromes were used to mimic the liver metabolism by in vitro incubation.
(§2) The assay was carried out in triplicate in 1.5 ml glass vials with a final concentration of 20 μM of petasin, isopetasin, and neopetasin. The incubation was performed in a 37°C warm water bath. S9 fractions were thawed slowly on ice. […]
(§3) A mixture of NADPH regeneration systems A (20‐fold) and B (100‐fold), phosphate buffer, and H2O was added, preincubated at 37°C, and shaken gently for 5 min. […] The supernatant was transferred to high‐performance liquid chromatography vials and analyzed by ultra‐performance liquid chromatography mass spectrometry (UPLC/MS). […]

CYP2C9 (human) = molecular target: T2, CYP2C9 (human) (Homo sapiens, UniProt P11712); experiment: Metabolism by isolated human CYP2C9
T2 construct: purchased BD Gentest (Switzerland); host or cells: baculovirus expression system
T2 sequence (P11712 whole entry): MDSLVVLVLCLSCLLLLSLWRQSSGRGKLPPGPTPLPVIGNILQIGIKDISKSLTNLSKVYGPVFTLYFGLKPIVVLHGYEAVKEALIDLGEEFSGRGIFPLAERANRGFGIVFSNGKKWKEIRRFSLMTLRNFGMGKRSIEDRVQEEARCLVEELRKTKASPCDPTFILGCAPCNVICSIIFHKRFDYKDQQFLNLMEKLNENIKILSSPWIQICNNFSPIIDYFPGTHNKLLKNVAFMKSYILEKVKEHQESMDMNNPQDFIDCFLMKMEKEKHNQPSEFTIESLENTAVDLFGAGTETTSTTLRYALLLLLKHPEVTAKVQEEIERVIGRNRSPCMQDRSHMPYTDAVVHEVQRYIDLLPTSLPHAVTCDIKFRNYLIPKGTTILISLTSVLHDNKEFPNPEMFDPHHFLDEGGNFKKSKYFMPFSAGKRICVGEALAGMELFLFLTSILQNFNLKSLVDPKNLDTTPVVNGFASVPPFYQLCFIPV
Text: as §1, §2, §3

CYP2D6 (human) = molecular target: T3, CYP2D6 (human) (Homo sapiens, UniProt P10635); experiment: Metabolism by isolated human CYP2D6
T3 construct: purchased BD Gentest (Switzerland); host or cells: baculovirus expression system
T3 sequence (P10635 whole entry): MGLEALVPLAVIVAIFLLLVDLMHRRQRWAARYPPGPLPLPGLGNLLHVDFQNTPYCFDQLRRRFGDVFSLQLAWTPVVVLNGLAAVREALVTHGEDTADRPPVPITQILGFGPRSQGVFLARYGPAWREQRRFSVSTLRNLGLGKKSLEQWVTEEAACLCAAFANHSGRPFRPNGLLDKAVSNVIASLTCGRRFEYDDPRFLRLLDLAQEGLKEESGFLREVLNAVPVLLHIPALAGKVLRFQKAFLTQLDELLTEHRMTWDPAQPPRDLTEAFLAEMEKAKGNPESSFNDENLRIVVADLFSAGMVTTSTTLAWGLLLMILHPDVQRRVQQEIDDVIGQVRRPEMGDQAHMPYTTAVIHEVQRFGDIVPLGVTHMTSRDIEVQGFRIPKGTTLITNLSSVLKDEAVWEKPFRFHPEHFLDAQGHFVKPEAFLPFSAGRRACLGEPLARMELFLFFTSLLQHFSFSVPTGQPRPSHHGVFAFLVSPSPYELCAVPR
Text: as §1, §2, §3

SMILES	extent of metabolism by CYP3A1 (rat) (CYP3A1 (rat)) [%]	extent of metabolism by CYP2C9 (human) (CYP2C9 (human)) [%]	extent of metabolism by CYP2D6 (human) (CYP2D6 (human)) [%]
C=C(C)[C@H]1C[C@@]2(C)C(=CC1=O)CC[C@@H](OC(=O)/C(C)=C\C)[C@@H]2C [neopetasin]	78	–	–
C=C(C)[C@@H]1C[C@@]2(C)C(=CC1=O)CC[C@@H](OC(=O)/C(C)=C\C)[C@@H]2C [petasin]	37	51	80.2
